In US8445674B2, “Heterocyclyl compounds” (Hoffmann-La Roche Inc, priority 2009, dated 2013):

Target: T1, human chemokine receptor 2 isoform B (Homo sapiens, UniProt P41597)
T1 construct: host or cells: CHOK1-CCR2B-A5 cells (CHO-K1)
T1 sequence (P41597 1-360 isoform P41597-2): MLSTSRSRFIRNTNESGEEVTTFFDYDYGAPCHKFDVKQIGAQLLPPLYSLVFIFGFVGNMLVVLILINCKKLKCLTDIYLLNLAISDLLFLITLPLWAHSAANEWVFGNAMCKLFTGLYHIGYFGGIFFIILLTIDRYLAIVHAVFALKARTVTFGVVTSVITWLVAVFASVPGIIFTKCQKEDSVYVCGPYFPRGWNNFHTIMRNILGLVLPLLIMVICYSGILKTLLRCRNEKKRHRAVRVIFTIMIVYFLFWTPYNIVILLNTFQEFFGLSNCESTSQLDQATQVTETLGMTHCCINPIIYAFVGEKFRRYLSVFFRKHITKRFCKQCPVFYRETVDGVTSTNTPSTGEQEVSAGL
Test: Calcium mobilization assay (FLIPR, antagonist activity against MCP-1)
Type: cell-based
Settings: Ca mobilisation assay, CHOK1-CCR2B-A5 cells, inhibition of calcium increase induced by 20 nM MCP-1
Outline: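 CHOK1 cells stably overexpressing human CCR2B, loaded with 4 μM Fluo-4 for 2 h at 30° C, compounds added and agonist signal read by FLIPR for 80 s. After 20-30 min at 30° C, 20 nM MCP-1 was added and fluorescence read again. IC50 is 50% inhibition of specific calcium increase (max minus basal).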

| SMILES | IC50 [nM] |
| --- | --- |
| COC[C@H](CCC(=O)N1CCC2(CC2)[C@H](O)C1)N1CCN(c2ccc(C(F)(F)F)c(Cl)c2)[C@@H](C)C1=O [Example 132, (S)-4-(3-Chloro-4-trifluoromethyl-phenyl)-1-[(S)-4-((S)-4-hydroxy-6-aza-spiro[2.5]oct-6-yl)-1-methoxymethyl-4-oxo-butyl]-3-methyl-piperazin-2-one] | 310 |
| C[C@H]1C(=O)N(CCC(O)C(=O)N2CCC3(CC3)[C@H](O)C2)CCN1C(=O)Nc1ccc(C(F)(F)F)c(Cl)c1 (stereo partly drawn) [Example 133, (S)-4-[(R,S)-3-Hydroxy-4-((S)-4-hydroxy-6-aza-spiro[2.5]oct-6-yl)-4-oxo-butyl]-2-methyl-3-oxo-piperazine-1-carboxylic acid (3-chloro-4-trifluoromethyl-phenyl)-amide] | 134 |
| C[C@H]1C(=O)N(CC[C@H](O)C(=O)N2CCC3(CC3)[C@H](O)C2)CCN1C(=O)Nc1ccc(C(F)(F)F)c(Cl)c1 [Example 134, (S)-4-[(S)-3-Hydroxy-4-((S)-4-hydroxy-6-aza-spiro[2.5]oct-6-yl)-4-oxo-butyl]-2-methyl-3-oxo-piperazine-1-carboxylic acid (3-chloro-4-trifluoromethyl-phenyl)-amide] | 188 |
| COC[C@H](CCC(=O)N1CCC2(CC2)[C@H](O)C1)N1CCN(C(=O)Nc2ccc(C(F)(F)F)c(Cl)c2)[C@@H](C)C1=O [Example 139, (S)-4-[(S)-4-((S)-4-Hydroxy-6-aza-spiro[2.5]oct-6-yl)-1-methoxymethyl-4-oxo-butyl]-2-methyl-3-oxo-piperazine-1-carboxylic acid (3-chloro-4-trifluoromethyl-phenyl)-amide] | 152 |
| C[C@H]1C(=O)N([C@@H](CCC(=O)N2CCC3(CC3)[C@H](O)C2)C(=O)O)CCN1C(=O)Nc1ccc(C(F)(F)F)c(Cl)c1 [Example 140, (S)-2-[(S)-4-(3-Chloro-4-trifluoromethyl-phenylcarbamoyl)-3-methyl-2-oxo-piperazin-1-yl]-5-((S)-4-hydroxy-6-aza-spiro[2.5]oct-6-yl)-5-oxo-pentanoic acid] | 751 |
| C[C@H]1C(=O)N([C@@H](CCC(=O)N2CCC3(CC3)[C@H](O)C2)C(N)=O)CCN1C(=O)Nc1ccc(C(F)(F)F)c(Cl)c1 [Example 141, (S)-4-[(S)-1-Carbamoyl-4-((S)-4-hydroxy-6-aza-spiro[2.5]oct-6-yl)-4-oxo-butyl]-2-methyl-3-oxo-piperazine-1-carboxylic acid (3-chloro-4-trifluoromethyl-phenyl)-amide] | 500 |
| CNC(=O)[C@H](CCC(=O)N1CCC2(CC2)[C@H](O)C1)N1CCN(C(=O)Nc2ccc(C(F)(F)F)c(Cl)c2)[C@@H](C)C1=O [Example 142, (S)-4-[(S)-4-((S)-4-Hydroxy-6-aza-spiro[2.5]oct-6-yl)-1-methylcarbamoyl-4-oxo-butyl]-2-methyl-3-oxo-piperazine-1-carboxylic acid (3-chloro-4-trifluoromethyl-phenyl)-amide] | 1320 |
| COC(=O)[C@H](CCC(=O)N1CCC2(CC2)[C@H](O)C1)N1CCN(C(=O)Nc2ccc(C(F)(F)F)c(C(F)(F)F)c2)[C@@H](C)C1=O [Example 143, (S)-2-[(S)-4-(3,4-Bis-trifluoromethyl-phenylcarbamoyl)-3-methyl-2-oxo-piperazin-1-yl]-5-((S)-4-hydroxy-6-aza-spiro[2.5]oct-6-yl)-5-oxo-pentanoic acid methyl ester] | 337 |
| COC(=O)[C@@H](CCC(=O)N1CCC2(CC2)[C@H](O)C1)N1CCN(C(=O)Nc2ccc(C(F)(F)F)c(Cl)c2)[C@@H](C)C1=O [Example 145, (R)-2-[(S)-4-(3-Chloro-4-trifluoromethyl-phenylcarbamoyl)-3-methyl-2-oxo-piperazin-1-yl]-5-((S)-4-hydroxy-6-aza-spiro[2.5]oct-6-yl)-5-oxo-pentanoic acid methyl ester] | 6310 |
| C[C@H]1C(=O)N([C@@H](CO)CCC(=O)N2CCC3(CC3)[C@H](O)C2)CCN1C(=O)Nc1ccc(C(F)(F)F)c(Cl)c1 [Example 146, (S)-4-[(R)-4-((S)-4-Hydroxy-6-aza-spiro[2.5]oct-6-yl)-1-hydroxymethyl-4-oxo-butyl]-2-methyl-3-oxo-piperazine-1-carboxylic acid (3-chloro-4-trifluoromethyl-phenyl)-amide] | 157 |

Now those with a lower IC50, led by results:

| IC50 [nM] | SMILES |
| --- | --- |
| 4.6 | C[C@@H]1CN([C@H](CO)CCC(=O)N2CCC3(CC3)[C@H](O)C2)C(=O)CCN1c1ccc(C(F)(F)F)c(C(F)(F)F)c1 [Example 128, (R)-1-(3,4-bis-trifluoromethyl-phenyl)-4-[(S)-4-((S)-4-hydroxy-6-aza-spiro[2.5]oct-6-yl)-1-hydroxymethyl-4-oxo-butyl]-2-methyl-[1,4]diazepan-5-one] |
| 36.8 | C[C@H]1C(=O)N(CCCC(=O)N2CCC3(CC3)[C@H](O)C2)CCN1c1ccc(C(F)(F)F)c(C(F)(F)F)c1 [Example 130, (S)-4-(3,4-Bis-trifluoromethyl-phenyl)-1-[4-((S)-4-hydroxy-6-aza-spiro[2.5]oct-6-yl)-4-oxo-butyl]-3-methyl-piperazin-2-one] |
| 13.1 | C[C@H]1C(=O)N(C[C@@H](O)CC(=O)N2CCC3(CC3)[C@H](O)C2)CCN1c1ccc(C(F)(F)F)c(Cl)c1 [Example 131, (S)-4-(3-Chloro-4-trifluoromethyl-phenyl)-1-[(S)-2-hydroxy-4-((S)-4-hydroxy-6-aza-spiro[2.5]oct-6-yl)-4-oxo-butyl]-3-methyl-piperazin-2-one] |
| 62.2 | C[C@H]1C(=O)N(CCC(O)C(=O)N2CCC3(CC3)[C@H](O)C2)CCN1C(=O)Nc1ccc(C(F)(F)F)c(C(F)(F)F)c1 (stereo partly drawn) [Example 135, (S)-4-[(R,S)-3-Hydroxy-4-((S)-4-hydroxy-6-aza-spiro[2.5]oct-6-yl)-4-oxo-butyl]-2-methyl-3-oxo-piperazine-1-carboxylic acid (3,4-bis-trifluoromethyl-phenyl)-amide] |
| 4.7 | C[C@H]1C(=O)N(CCC(F)C(=O)N2CCC3(CC3)[C@H](O)C2)CCN1C(=O)Nc1ccc(C(F)(F)F)c(Cl)c1 (stereo partly drawn) [Example 136, (S)-4-[(R,S)-3-Fluoro-4-((S)-4-hydroxy-6-aza-spiro[2.5]oct-6-yl)-4-oxo-butyl]-2-methyl-3-oxo-piperazine-1-carboxylic acid (3-chloro-4-trifluoromethyl-phenyl)-amide] |
| 4.5 | C[C@H]1C(=O)N([C@H](CO)CCC(=O)N2CCC3(CC3)[C@H](O)C2)CCN1C(=O)Nc1ccc(C(F)(F)F)c(C(F)(F)F)c1 [Example 144, (S)-4-[(S)-4-((S)-4-Hydroxy-6-aza-spiro[2.5]oct-6-yl)-1-hydroxymethyl-4-oxo-butyl]-2-methyl-3-oxo-piperazine-1-carboxylic acid (3,4-bis-trifluoromethyl-phenyl)-amide] |
| 3.5 | C[C@H]1C(=O)N(CCCC(=O)N2CCC3(CC3)[C@H](O)C2)[C@H](C(N)=O)CN1C(=O)Nc1ccc(C(F)(F)F)c(Cl)c1 [Example 147, (3S,6S)—N1-(3-chloro-4-(trifluoromethyl)phenyl)-4-(4-((S)-4-hydroxy-6-azaspiro[2.5]octan-6-yl)-4-oxobutyl)-6-methyl-5-oxopiperazine-1,3-dicarboxamide] |
| 30.5 | C[C@H]1C(=O)N(CCCC(=O)N2CCC3(CC3)[C@H](O)C2)[C@@H](C(N)=O)CN1C(=O)Nc1ccc(C(F)(F)F)c(Cl)c1 [Example 148, (3R,6S)—N1-(3-chloro-4-(trifluoromethyl)phenyl)-4-(4-((S)-4-hydroxy-6-azaspiro[2.5]octan-6-yl)-4-oxobutyl)-6-methyl-5-oxopiperazine-1,3-dicarboxamide] |
